Test results as given in patent US20100305215A1, “DERMAL REGENERATION ENHANCER” (JAPAN SCIENCE AND TECHNOLOGY AGENCY, priority 2005, published 2010).

System: skin of colored guinea pigs having melanin pigment-producing cells
Assay: Dermal regeneration enhancing action of liquid crystal versus its constituting components on guinea pig skin (Example 4)
Type: in vivo, guinea pigs (Weiser Maples)
Settings: 30 mg on 2 cm×2 cm shaved back; each sample solely applied
Protocol: Back of colored guinea pigs having melanin pigment-producing cells (Weiser Maples; six weeks age; male) was shaved, the shaved part was washed with lukewarm water and 30 mg of the above lyotropic liquid crystal was applied to an area of 2 cm×5 cm thereof. After 2 days from the application date under irradiation with any of UVA, UVB and UVA+UVB, skin of the part to which the lyotropic liquid crystal was applied was collected and the slice was fixed with formalin, embedded in paraffin and stained by a Fontana-Masson method where melanin pigment was stained out in black to evaluate the dermal regeneration enhancing action.
Back of colored guinea pigs having melanin pigment-producing cells (Weiser Maples, five weeks age, male) was shaved, the shaved part was washed with lukewarm water, each 30 mg of the four kinds of samples of the lyotropic crystal of (A) of Example 1 and the constituting components thereof—surfactant, oil and polyhydric alcohol—was applied to an area of 2 cm×2 cm thereof and the dermal regeneration enhancing action was evaluated by the method mentioned in (A) of Example 1. Cross-sectional pictures of the skin to which each of the samples was applied are shown in FIG. 6 together with the cross-sectional picture of the skin to which nothing was applied.

CC(C)CCCC(C)CCCC(C)CCCCC(C)CCCC(C)CCCC(C)C (centres unmarked) [oil, squalane]
dermal regeneration enhancing action: no dermal regeneration enhancing action was noted

OCC(O)CO [polyhydric alcohol, glycerol]
dermal regeneration enhancing action: no dermal regeneration enhancing action was noted
